{"source": "patent US8357636B2", "about": "“Alkoxylated alkylamines/alkyl ether amines with peaked distribution” (Akzo Nobel N.V., priority 2004, dated 2013)", "assay": "Effect of EO adduct added to 62% K-glyphosate solution (clear or hazy)", "assay_type": "physicochemical", "conditions": "~25% added into a 62% K-glyphosate solution", "description": "Therefore, even a slight reduction in concentration of the higher EO adduct could improve the cloud point of glyphosate formulation dramatically.", "data": [{"smiles": "OCCOCCO", "note": "[diethylene glycol]", "values": [{"measurement": "Appearance of solution after addition", "value": "clear solution"}]}]}
